In patent publication US4288609A, “Quaternary ammonium derivatives of adamantane with antimicrobic activity” (priority 1976, dated 1981):
Read-outs that look alike come from different tables or passages of the source.

Key:
[1] = test system: Streptococ. Henclyt. 0203; experiment: M.I.C. in vitro, gram+ Streptococ. Henclyt. (Table 1); format: cell-based; conditions: for MIC: read-out: M.I.C.
Outline: (§1)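 M.I.C. values, in γ/ml, are the minimum concentrations inhibiting growth in culture broth. Media seeded with a predetermined number of organisms receive calculated quantities of compound and are incubated 24 or 48 hours at 30° or 37° C., according to the strain.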

[2] = test system: all the micro-organisms tested; experiment: Speed of sterilising action, all micro-organisms; format: cell-based; conditions: even with a very low concentration
Description: (§2) The strains, inoculants, culture broths and experimental methods are as already seen for calculating the M.I.C. in vitro. The antimicrobic substances were tested at concentrations of 0.1, 0.25, 0.5 and 1 g/l, the contact times taken into consideration are 0, 1, 2.5, 5, 7.5, 10, 15, 30 and 60 minutes.
(§3) The samples which at the 7th day of incubation still had no growth of micro-organisms which could be observed macroscopically and/or microscopically were considered sterile.
(§4) The results are recorded in Table 3 in terms of sterilization time expressed in minutes.

Candida Albic. SKF 2270 = experiment: MIC yeasts, Candida albicans (Table 2); format: cell-based; conditions: for MIC: Sabourand broth; for activity on Candida albicans, times greater than that of cetyl pyridine chloride: in the absence of serum; for activity on Candida albicans, times higher than that of cetyl pyridine chloride: in the presence of 10% of horse serum
Outline: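 Candida inoculum (10^3 cells/ml, from 24 h cultures at 30° C) in Sabouraud broth containing graded compound concentrations.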

Staph.Aureus Tour = experiment: M.I.C. in vitro, gram+ Staph. Aureus (Table 1); format: cell-based, Staphylococcus Aureus; conditions: for MIC: Staphylococcus aureus, read-out: M.I.C.
Outline: as §1

[3] = test system: Trych. Mentagr. 1st.Pastuer; experiment: MIC mildews, Trichophyton mentagrophytes (Table 2); format: cell-based; conditions: Sabourand broth
Pseudom.Aer. ATCC 1014 = experiment: M.I.C. in vitro, gram- Pseudom. Aer. (Table 1); format: cell-based, Pseudomonas Aeruginosa; conditions: for MIC: Pseudomonas aeruginosa, read-out: M.I.C.
Outline: as §1

[4] = test system: Trich. Vaginalis ISM 66/22; experiment: MIC protozoa, Trichomonas vaginalis (Table 2); format: cell-based; conditions: +10% serum (head), Kupferberg Trichomonas broth with 5% of horse serum
Outline: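 Test substance was added at set concentrations to Kupferberg Trichomonas broth with 5% horse serum, inoculated with T. vaginalis or T. foetus at 3.5% of medium volume. Growth was assessed after 24 or 48 h incubation at 30° or 37 °C. MIC is the minimum concentration inhibiting growth.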

Klens. Pneum. ISM = experiment: M.I.C. in vitro, gram- Klens. Pneum. (Table 1); format: cell-based; conditions: for MIC: read-out: M.I.C.
Outline: as §1

[5] = test system: Escherichia Coli SKF 12140; experiment: Speed of sterilising action, Escherichia Coli (Table 3); format: cell-based
Description: as §2, §3, §4

Diplococcus Pneum. ISM = experiment: M.I.C. in vitro, gram+ Diplococcus Pneum. (Table 1); format: cell-based; conditions: read-out: M.I.C.
Outline: as §1

Proteus Vulc. ATCC 881 = experiment: M.I.C. in vitro, gram- Proteus Vulc. (Table 1); format: cell-based; conditions: read-out: M.I.C.
Outline: as §1

[6] = test system: Nicrosporum Canis ATCC 11621; experiment: MIC mildews, Microsporum canis (Table 2); format: cell-based; conditions: Sabourand broth
[7] = test system: Candida Albicans SKF 2270; experiment: Speed of sterilising action, Candida Albicans (Table 3); format: cell-based
Description: as §2, §3, §4

Esch. Coli. SKF 12140 = experiment: M.I.C. in vitro, gram- Esch. Coli (Table 1); format: cell-based, Escherichia Coli; conditions: Escherichia coli, read-out: M.I.C.
Outline: as §1

[8] = test system: gram+ and gram- bacterial strains; experiment: Activity in vitro on gram+ and gram- bacteria, overall; format: cell-based; conditions: gram positive and gram negative strains, low concentrations
Description: The method for evaluating the activity in vitro against bacteria, fungi and protozoa consists in introducing calculated quantities of the substance, the activity of which it is desired to test, into culture media already inoculated with a predetermined number of test germs.
After 24 or 48 hours of incubation at 30° or 37° C., according to the micro-organism being tested, it is possible to evaluate the growth of the same in the culture broth; in this manner the minimum concentration (M.I.C.) which inhibits the growth of the micro-organisms in vitro is determined.
In table 1 there are recorded the M.I.C. values in γ/ml of the products subject of the present invention, against certain gram+ and gram- bacterial strains, some of which are pathogenic towards human beings.

Pseudomonas Aeruginosa = experiment: Antibacterial activity in vivo with topical treatment (Table 5); parameters: species or system female CF1 albino mice; conditions: for animals alive on the 15th day / animals dead on the 15th day: 10 animals; for % survivors: topical, 15th day; for efficacy in vivo (in words): other concentrations considered
Description: After their backs have been shaved, female CF1 albino mice weighing 18-22 g are scorched (under ether anaesthetic) for 15 seconds with a pad of brass previously immersed in boiling water (7-8% of the body surface). After 90 minutes there is applied to the scorched area 0.1 ml of a suspension of Pseudomonas Aeruginosa bacteria having 15% transmittance at 650 nm. The bacterial strain in question produces a high incidence of mortality, induced by septicemic diffusion from the point of infection. After 90 minutes, with the aid of a glass rod suitably flattened at one end, the preparation containing a known concentration of the compound under examination is applied locally. The treatment is continued for a total of six days (once per day). On the fifteenth day the percentage of survivors to the tested doses in recorded.
The carrier used for applying the compounds under examination is an aqueous 0.75% solution of carboxymethyl-cellulose. The concentrations of the compounds tested are 2, 1, 0.5 and 0.25% by weight.

[9] = Microsporum canis, ATCC11621, +10% serum, read-out: MIC

Compound: CCCCCCCCCC[N+](C)(C)CCOC(=O)C12CC3CC(CC(C3)C1)C2 (single isomer, unassigned) [Example 1, n-Decyl-dimethyl-(1-adamantane-carboxy)-ethyl-ammonium bromide]
- M.I.C. ([1]; +10% serum): 0.1 µg/mL
- MIC ([1]; without serum): < 0.1 µg/mL
- sterilising action (in words) [2]: swift sterilising action on all the micro-organisms tested
- MIC (Candida Albic. SKF 2270; +10% serum): 10 µg/mL
- activity on Candida albicans, times greater than that of cetyl pyridine chloride (Candida Albic. SKF 2270): about 25 times
- activity on Candida albicans, times higher than that of cetyl pyridine chloride (Candida Albic. SKF 2270): 5-10 times
- MIC (Candida Albic. SKF 2270; without serum): 0.2 µg/mL
- M.I.C. (Staph.Aureus Tour; +10% serum): 2 µg/mL
- MIC (Staph.Aureus Tour; without serum): < 0.1 µg/mL
- MIC ([3]; +10% serum): 5 µg/mL
- MIC ([3]; without serum): 0.1 µg/mL
- MIC (Pseudom.Aer. ATCC 1014; ATCC1014, +10% serum): 50 µg/mL
- M.I.C. (Pseudom.Aer. ATCC 1014; without serum): 20 µg/mL
- MIC [4]: 5 µg/mL
- MIC (Klens. Pneum. ISM; +10% serum): 50 µg/mL
- M.I.C. (Klens. Pneum. ISM; without serum): 5 µg/mL
- sterilization time ([5]; 0.1 g/l): 60 min
- sterilization time ([5]; 0.25 g/l): 60 min
- sterilization time ([5]; 0.5 g/l): 15 min
- sterilization time ([5]; 1 g/l): 5 min
- MIC (Diplococcus Pneum. ISM; +10% serum): 5 µg/mL
- MIC (Diplococcus Pneum. ISM; without serum): 1 µg/mL
- MIC (Proteus Vulc. ATCC 881; +10% serum): 50 µg/mL
- MIC (Proteus Vulc. ATCC 881; without serum): 10 µg/mL
- MIC [6, 9]: 10 µg/mL
- MIC ([6]; without serum): 0.1 µg/mL
- sterilization time ([7]; 0.1 g/l): 30 min
- sterilization time ([7]; 0.25 g/l): 2.5 min
- sterilization time ([7]; 0.5 g/l): 1 min
- sterilization time ([7]; 1 g/l): 1 min
- MIC (Esch. Coli. SKF 12140; +10% serum): 50 µg/mL
- MIC (Esch. Coli. SKF 12140; without serum): 5 µg/mL
- antibacterial activity (in words) [8]: powerful antibacterial activity at low concentrations
- animals alive on the 15th day (Pseudomonas Aeruginosa; 0.25% by weight): 5
- animals dead on the 15th day (Pseudomonas Aeruginosa; 0.25% by weight): 5
- % survivors (Pseudomonas Aeruginosa; 0.25% by weight): 50%
- animals alive on the 15th day (Pseudomonas Aeruginosa; 0.5% by weight): 6
- animals dead on the 15th day (Pseudomonas Aeruginosa; 0.5% by weight): 4
- animals alive on the 15th day (Pseudomonas Aeruginosa; 1% by weight): 8
- animals dead on the 15th day (Pseudomonas Aeruginosa; 1% by weight): 2
- % survivors (Pseudomonas Aeruginosa; 1% by weight): 80%
- animals alive on the 15th day (Pseudomonas Aeruginosa; 2% by weight): 8
- animals dead on the 15th day (Pseudomonas Aeruginosa; 2% by weight): 2
- % survivors (Pseudomonas Aeruginosa; 2% by weight): 80%
- efficacy in vivo (in words) (Pseudomonas Aeruginosa): secure efficacy

Compound: CCCCCCCCCCCC[N+](C)(C)CCNC(=O)C12CC3CC(CC(C3)C1)C2 [Example 8]
- MIC ([1]; +10% serum): 1 µg/mL
- MIC ([1]; without serum): < 0.1 µg/mL
- sterilising action (in words) [2]: swift sterilising action on all the micro-organisms tested
- MIC (Candida Albic. SKF 2270; Candida, +10% serum, read-out: MIC): 20 µg/mL
- MIC (Candida Albic. SKF 2270; Candida, without serum, read-out: MIC): 0.2 µg/mL
- activity on Candida albicans, times greater than that of cetyl pyridine chloride (Candida Albic. SKF 2270): about 25 times
- activity on Candida albicans, times higher than that of cetyl pyridine chloride (Candida Albic. SKF 2270): 5-10 times
- MIC (Staph.Aureus Tour; +10% serum): 5 µg/mL
- MIC (Staph.Aureus Tour; without serum): < 0.1 µg/mL
- MIC ([3]; Trichophyton mentagrophytes, +10% serum, read-out: MIC): 5 µg/mL
- MIC ([3]; Trichophyton mentagrophytes, without serum, read-out: MIC): 0.1 µg/mL
- MIC (Pseudom.Aer. ATCC 1014; ATCC1014, +10% serum): 50 µg/mL
- MIC (Pseudom.Aer. ATCC 1014; ATCC1014, without serum): 10 µg/mL
- MIC ([4]; Trichomonas vaginalis, read-out: MIC): 2 µg/mL
- MIC (Klens. Pneum. ISM; +10% serum): 50 µg/mL
- MIC (Klens. Pneum. ISM; without serum): 5 µg/mL
- sterilization time ([5]; 0.1 g/l): 60 min
- sterilization time ([5]; 0.25 g/l): 60 min
- sterilization time ([5]; 0.5 g/l): 10 min
- sterilization time ([5]; 1 g/l): 7.5 min
- MIC (Diplococcus Pneum. ISM; +10% serum): 5 µg/mL
- MIC (Diplococcus Pneum. ISM; without serum): 1 µg/mL
- MIC (Proteus Vulc. ATCC 881; +10% serum): 100 µg/mL
- MIC (Proteus Vulc. ATCC 881; without serum): 5 µg/mL
- MIC [6, 9]: 20 µg/mL
- MIC ([6]; Microsporum canis, ATCC11621, without serum, read-out: MIC): 0.1 µg/mL
- sterilization time ([7]; 0.1 g/l): 60 min
- sterilization time ([7]; 0.25 g/l): 15 min
- sterilization time ([7]; 0.5 g/l): 2.5 min
- sterilization time ([7]; 1 g/l): 2.5 min
- MIC (Esch. Coli. SKF 12140; +10% serum): 100 µg/mL
- MIC (Esch. Coli. SKF 12140; without serum): 2 µg/mL
- antibacterial activity (in words) [8]: powerful antibacterial activity at low concentrations
- animals alive on the 15th day (Pseudomonas Aeruginosa; 0.25% by weight): 3
- animals dead on the 15th day (Pseudomonas Aeruginosa; 0.25% by weight): 7
- % survivors (Pseudomonas Aeruginosa; 0.25% by weight): 30%
- animals alive on the 15th day (Pseudomonas Aeruginosa; 0.5% by weight): 6
- animals dead on the 15th day (Pseudomonas Aeruginosa; 0.5% by weight): 5
- % survivors (Pseudomonas Aeruginosa; 0.5% by weight): 60%
- animals alive on the 15th day (Pseudomonas Aeruginosa; 1% by weight): 6
- animals dead on the 15th day (Pseudomonas Aeruginosa; 1% by weight): 4
- % survivors (Pseudomonas Aeruginosa; 1% by weight): 60%
- animals alive on the 15th day (Pseudomonas Aeruginosa; 2% by weight): 7
- animals dead on the 15th day (Pseudomonas Aeruginosa; 2% by weight): 3
- % survivors (Pseudomonas Aeruginosa; 2% by weight): 70%
- efficacy in vivo (in words) (Pseudomonas Aeruginosa): secure efficacy
